# Data as given in US10709712B2, “Biaryl amide compounds as kinase inhibitors” (NOVARTIS AG, priority 2013, dated 2020).
# Assays:
# [1] = target: b-Raf(V600E) (Homo sapiens (Human), UniProt P15056, V600E); details: read-out: b-Raf IC-50; Table 2; Alpha Screen phospho-MEK, reaction 3 hours
# [2] = target: C-Raf FL (full-length C-Raf protein) (Homo sapiens (Human), UniProt P04049, Y340E/Y341E); type: biochemical; details: Table 2, Alpha Screen phospho-MEK, reaction 1 hour, read-out: c-Raf FL IC-50
# Chain of b-Raf(V600E) (P15056 whole entry V600E): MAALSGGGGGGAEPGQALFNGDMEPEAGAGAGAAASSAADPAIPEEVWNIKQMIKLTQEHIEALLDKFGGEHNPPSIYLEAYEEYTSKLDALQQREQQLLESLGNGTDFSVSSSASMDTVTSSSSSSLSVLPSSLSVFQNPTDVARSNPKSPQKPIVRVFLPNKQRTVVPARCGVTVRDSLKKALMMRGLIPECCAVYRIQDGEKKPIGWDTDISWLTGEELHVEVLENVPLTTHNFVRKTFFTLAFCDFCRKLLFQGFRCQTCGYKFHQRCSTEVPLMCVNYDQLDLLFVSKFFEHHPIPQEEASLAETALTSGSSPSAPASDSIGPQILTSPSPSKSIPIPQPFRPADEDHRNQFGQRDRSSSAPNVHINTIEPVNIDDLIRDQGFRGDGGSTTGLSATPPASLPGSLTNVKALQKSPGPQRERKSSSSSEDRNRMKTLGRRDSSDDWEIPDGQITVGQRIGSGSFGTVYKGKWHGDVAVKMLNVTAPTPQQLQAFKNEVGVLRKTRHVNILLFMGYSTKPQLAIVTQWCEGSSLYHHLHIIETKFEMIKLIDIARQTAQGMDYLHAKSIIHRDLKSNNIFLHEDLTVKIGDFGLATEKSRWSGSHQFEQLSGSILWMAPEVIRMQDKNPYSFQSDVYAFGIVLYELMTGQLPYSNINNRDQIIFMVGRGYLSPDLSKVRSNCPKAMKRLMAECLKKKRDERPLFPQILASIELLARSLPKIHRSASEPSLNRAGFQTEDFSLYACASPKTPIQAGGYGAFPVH
IC50 [1] [nM],IC50 [2] [nM],Compound
0.6,–,N-(4-methyl-3-(5-morpholino-6-((tetrahydro-2H-pyran-4-yl)oxy)pyridazin-3-yl) phenyl)-6-(trifluoromethyl) pyridazine-4-carboxamide [Example 577]
–,0.2,"N-(4-methyl-3-(7-morpholino-2-oxo-2,3-dihydrobenzo[d]oxazol-5-yl) phenyl)-3-(trifluoromethyl) benzamide [Example 827]"
3.7,–,"Cc1ncc(NC(=O)c2cccc(C(F)(F)F)c2)cc1-c1cc(N2CCOCC2)nc(NC[C@@H](C)O)n1 [Example 743, (R)—N-(5-(2-((2-hydroxypropyl)amino)-6-morpholinopyrimidin-4-yl)-6-methylpyridin-3-yl)-3-(trifluoromethyl) benzamide]"
